Reference: patent US8987195B2 (priority 2012, dated 2015)

Tests used:
[1] = target: HCV NS3/4A protease genotype 1b (Hepatitis C virus genotype 1b, UniProt P26663); assay: HCV NS3/4A protease time-resolved fluorescence (TRF) assay, Ki against genotype 1b; format: biochemical; settings: IC50 [gt-1b] (nM), NS3/4A genotype 1b, enzyme 0.2 nM
How it was run: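 Enzyme 0.2 nM 1b / 0.4 nM A156T / 0.025 nM 3a; 30 min preinc. w/ cpd; 25 nM TRF peptide; 2.5 h RT; ex 340/em 615 time-delayed; 4-param IC50 → Ki = IC50/(1+[S]/KM).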

HCV genotype 1b replicon = assay: HCV replicon assay, genotype 1b replicon EC50; format: cell-based, Hepatitis C virus; settings: Hepatitis C virus, genotype 1b replicon; read-out: EC50 [gt-1b]
How it was run: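 Cells harbouring a stable replicon are grown under G418 selection, then plated with test compound in G418-free medium for 24-48 hours. After washing and lysis, RNA or luciferase signal is measured and expressed as percent of DMSO control to give EC50.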

| Structure (SMILES) | IC50 [1] | EC50 (HCV genotype 1b replicon) |
| --- | --- | --- |
| CCOC(=O)N[C@H]1CCCCC/C=C\[C@@H]2C[C@@]2(C(=O)NS(=O)(=O)C2(C)CC2)NC(=O)[C@@H]2C[C@]3(CCc4c(c(C(F)F)nc5ccccc45)O3)CN2C1=O [Example 329, ethyl [(2R,6S,12Z,13aS,14aR,16aS)-5′-(difluoromethyl)-14a-{[(1-methylcyclopropyl)sulfonyl]carbamoyl}-5,16-dioxo-1,1′,2′,5,6,7,8,9,10,11,13a,14,14a,15,16,16a-hexadecahydrospiro[cyclopropa[e]pyrrolo[1,2-a][1,4]diazacyclopentadecine-2,3′-pyrano[2,3-c]quinolin]-6-yl]carbamate] | 0.032 nM | 12.2 nM |
| CC(C)(C)OC(=O)N[C@H]1CCCCC/C=C\[C@@H]2C[C@@]2(C(=O)NS(=O)(=O)C2(C)CC2)NC(=O)[C@@H]2C[C@]3(CCc4c(c(C(F)F)nc5ccc(Cl)cc45)O3)CN2C1=O [Example 331, tert-butyl [(2R,6S,12Z,13aS,14aR,16aS)-9′-chloro-5′-(difluoromethyl)-14a-{[(1-methylcyclopropyl)sulfonyl]carbamoyl}-5,16-dioxo-1,1′,2′,5,6,7,8,9,10,11,13a,14,14a,15,16,16a-hexadecahydrospiro[cyclopropa[e]pyrrolo[1,2-a][1,4]diazacyclopentadecine-2,3′-pyrano[2,3-c]quinolin]-6-yl]carbamate] | 0.01 nM | 6.71 nM |
| Cc1nc2ccc(C3CC3)cc2c2c1O[C@]1(CC2)C[C@H]2C(=O)N[C@]3(C(=O)NS(=O)(=O)C4(C)CC4)C[C@H]3/C=C\CCCCC[C@H](NC(=O)OC(C)(C)C)C(=O)N2C1 [Example 332, tert-butyl [(2R,6S,12Z,13aS,14aR,16aS)-9′-cyclopropyl-5′-methyl-14a-{[(1-methylcyclopropyl)sulfonyl]carbamoyl}-5,16-dioxo-1,1′,2′,5,6,7,8,9,10,11,13a,14,14a,15,16,16a-hexadecahydrospiro[cyclopropa[e]pyrrolo[1,2-a][1,4]diazacyclopentadecine-2,3′-pyrano[2,3-c]quinolin]-6-yl]carbamate] | 0.017 nM | 2.69 nM |
| Cc1nc2ccc(Cl)cc2c2c1O[C@]1(CC2)C[C@H]2C(=O)N[C@]3(C(=O)NS(=O)(=O)C4(C)CC4)C[C@H]3/C=C\CCCCC[C@H](NC(=O)OC(C)(C)C(F)(F)F)C(=O)N2C1 [Example 333, 1,1,1-trifluoro-2-methylpropan-2-yl [(2R,6S,12Z,13aS,14aR,16aS)-9′-chloro-5′-methyl-14a-{[(1-methylcyclopropyl)sulfonyl]carbamoyl}-5,16-dioxo-1,1′,2′,5,6,7,8,9,10,11,13a,14,14a,15,16,16a-hexadecahydrospiro[cyclopropa[e]pyrrolo[1,2-a][1,4]diazacyclopentadecine-2,3′-pyrano[2,3-c]quinolin]-6-yl]carbamate] | 0.01 nM | 10.3 nM |
| CC(C)(OC(=O)N[C@H]1CCCCC/C=C\[C@@H]2C[C@@]2(C(=O)NS(=O)(=O)C2(C)CC2)NC(=O)[C@@H]2C[C@]3(CCc4c(c(C(F)F)nc5ccc(Cl)cc45)O3)CN2C1=O)C(F)(F)F [Example 334, 1,1,1-trifluoro-2-methylpropan-2-yl [(2R,6S,12Z,13aS,14aR,16aS)-9′-chloro-5′-(difluoromethyl)-14a-{[(1-methylcyclopropyl)sulfonyl]carbamoyl}-5,16-dioxo-1,1′,2′,5,6,7,8,9,10,11,13a,14,14a,15,16,16a-hexadecahydrospiro[cyclopropa[e]pyrrolo[1,2-a][1,4]diazacyclopentadecine-2,3′-pyrano[2,3-c]quinolin]-6-yl]carbamate] | 0.019 nM | 5.59 nM |
| CCc1nc2ccc(OC)cc2c2c1O[C@]1(CC2)C[C@H]2C(=O)N[C@]3(C(=O)NS(=O)(=O)C4(C)CC4)C[C@H]3/C=C\CCCCC[C@H](NC(=O)OC(C)(C)C(F)(F)F)C(=O)N2C1 [Example 335, 1,1,1-trifluoro-2-methylpropan-2-yl [(2R,6S,12Z,13aS,14aR,16aS)-5′-ethyl-9′-methoxy-14a-{[(1-methylcyclopropyl)sulfonyl]carbamoyl}-5,16-dioxo-1,1′,2′,5,6,7,8,9,10,11,13a,14,14a,15,16,16a-hexadecahydrospiro[cyclopropa[e]pyrrolo[1,2-a][1,4]diazacyclopentadecine-2,3′-pyrano[2,3-c]quinolin]-6-yl]carbamate] | 0.017 nM | 2.6 nM |
| CCc1nc2ccc(OC)cc2c2c1O[C@]1(CC2)C[C@H]2C(=O)N[C@]3(C(=O)NS(=O)(=O)C4(C)CC4)C[C@H]3/C=C\CCCCC[C@H](NC(=O)OC3CCCC3)C(=O)N2C1 [Example 336, cyclopentyl [(2R,6S,12Z,13aS,14aR,16aS)-5′-ethyl-9′-methoxy-14a-{[(1-methylcyclopropyl)sulfonyl]carbamoyl}-5,16-dioxo-1,1′,2′,5,6,7,8,9,10,11,13a,14,14a,15,16,16a-hexadecahydrospiro[cyclopropa[e]pyrrolo[1,2-a][1,4]diazacyclopentadecine-2,3′-pyrano[2,3-c]quinolin]-6-yl]carbamate] | 0.008 nM | 3.46 nM |
| CCc1nc2ccc(OC)cc2c2c1O[C@]1(CC2)C[C@H]2C(=O)N[C@]3(C(=O)NS(=O)(=O)C4(C)CC4)C[C@H]3/C=C\CCCCC[C@H](NC(=O)OCC(C)C)C(=O)N2C1 [Example 337, 2-methylpropyl [(2R,6S,12Z,13aS,14aR,16aS)-5′-ethyl-9′-methoxy-14a-{[(1-methylcyclopropyl)sulfonyl]carbamoyl}-5,16-dioxo-1,1′,2′,5,6,7,8,9,10,11,13a,14,14a,15,16,16a-hexadecahydrospiro[cyclopropa[e]pyrrolo[1,2-a][1,4]diazacyclopentadecine-2,3′-pyrano[2,3-c]quinolin]-6-yl]carbamate] | 0.009 nM | 2.37 nM |
| CCc1nc2ccc(OC)cc2c2c1O[C@]1(CC2)C[C@H]2C(=O)N[C@]3(C(=O)NS(=O)(=O)C4(C)CC4)C[C@H]3/C=C\CCCCC[C@H](NC(=O)OCC(C)(C)C)C(=O)N2C1 [Example 338, 2,2-dimethylpropyl [(2R,6S,12Z,13aS,14aR,16aS)-5′-ethyl-9′-methoxy-14a-{[(1-methylcyclopropyl)sulfonyl]carbamoyl}-5,16-dioxo-1,1′,2′,5,6,7,8,9,10,11,13a,14,14a,15,16,16a-hexadecahydrospiro[cyclopropa[e]pyrrolo[1,2-a][1,4]diazacyclopentadecine-2,3′-pyrano[2,3-c]quinolin]-6-yl]carbamate] | 0.009 nM | 1.53 nM |
| Cc1nc2cc(F)ccc2c2c1O[C@]1(CC2)C[C@H]2C(=O)N[C@]3(C(=O)NS(=O)(=O)C4(C)CC4)C[C@H]3/C=C\CCCCC[C@H](NC(=O)OCC(C)(C)C)C(=O)N2C1 [Example 339, 2,2-dimethylpropyl [(2R,6S,12Z,13aS,14aR,16aS)-8′-fluoro-5′-methyl-14a-{[(1-methylcyclopropyl)sulfonyl]carbamoyl}-5,16-dioxo-1,1′,2′,5,6,7,8,9,10,11,13a,14,14a,15,16,16a-hexadecahydrospiro[cyclopropa[e]pyrrolo[1,2-a][1,4]diazacyclopentadecine-2,3′-pyrano[2,3-c]quinolin]-6-yl]carbamate] | 0.019 nM | 1.92 nM |
| Cc1nc2cc(F)ccc2c2c1O[C@]1(CC2)C[C@H]2C(=O)N[C@]3(C(=O)NS(=O)(=O)C4(C)CC4)C[C@H]3/C=C\CCCCC[C@H](NC(=O)OCC(C)C)C(=O)N2C1 [Example 340, 2-methylpropyl [(2R,6S,12Z,13aS,14aR,16aS)-8′-fluoro-5′-methyl-14a-{[(1-methylcyclopropyl)sulfonyl]carbamoyl}-5,16-dioxo-1,1′,2′,5,6,7,8,9,10,11,13a,14,14a,15,16,16a-hexadecahydrospiro[cyclopropa[e]pyrrolo[1,2-a][1,4]diazacyclopentadecine-2,3′-pyrano[2,3-c]quinolin]-6-yl]carbamate] | 0.03 nM | 3.23 nM |
| COc1cccc(N[C@H]2CCCCC/C=C\[C@@H]3C[C@@]3(C(=O)NS(=O)(=O)C3(C)CC3)NC(=O)[C@@H]3C[C@]4(CCc5c(c(C)nc6ccccc56)O4)CN3C2=O)c1 [Example 341, (2R,6S,12Z,13aS,14aR,16aS)-6-[(3-methoxyphenyl)amino]-5′-methyl-N-[(1-methylcyclopropyl)sulfonyl]-5,16-dioxo-1,1′,2′,6,7,8,9,10,11,13a,14,15,16,16a-tetradecahydrospiro[cyclopropa[e]pyrrolo[1,2-a][1,4]diazacyclopentadecine-2,3′-pyrano[2,3-c]quinoline]-14a(5R)-carboxamide] | 0.172 nM | 1.04 nM |
| Cc1cccc(N[C@H]2CCCCC/C=C\[C@@H]3C[C@@]3(C(=O)NS(=O)(=O)C3(C)CC3)NC(=O)[C@@H]3C[C@]4(CCc5c(c(C)nc6ccccc56)O4)CN3C2=O)n1 [Example 343, (2R,6S,12Z,13aS,14aR,16aS)-5′-methyl-N-[(1-methylcyclopropyl)sulfonyl]-6-[(6-methylpyridin-2-yl)amino]-5,16-dioxo-1,1′,2′,6,7,8,9,10,11,13a,14,15,16,16a-tetradecahydrospiro[cyclopropa[e]pyrrolo[1,2-a][1,4]diazacyclopentadecine-2,3′-pyrano[2,3-c]quinoline]-14a(5H)-carboxamide] | 0.05 nM | 5.86 nM |
| Cc1nc2ccccc2c2c1O[C@]1(CC2)C[C@H]2C(=O)N[C@]3(C(=O)NS(=O)(=O)C4(C)CC4)C[C@H]3/C=C\CCCCC[C@H](N)C(=O)N2C1 [Example 344, (2R,6S,12Z,13aS,14aR,16aS)-6-amino-5′-methyl-N-[(1-methylcyclopropyl)sulfonyl]-5,16-dioxo-1,1′,2′,6,7,8,9,10,11,13a,14,15,16,16a-tetradecahydrospiro[cyclopropa[e]pyrrolo[1,2-a][1,4]diazacyclopentadecine-2,3′-pyrano[2,3-c]quinoline]-14a(5H)-carboxamide] | 0.685 nM | 662 nM |
